In patent publication US10493077B2, “Fused imidazo-piperidine JAK inhibitor compound” (THERAVANCE BIOPHARMA R&D IP, LLC, priority 2017, dated 2019):
Read-outs that look alike come from different tables or passages of the source.

How the values were obtained:
[1] = Ocular pharmacokinetics in rabbit eyes; format: in vivo; settings: for half-life: rabbit, vitreous, solution formulation in 2% 2-hydroxypropyl-β-cyclodextrin, intravitreal 50 μg/eye
Experimental: The objective of this assay was to determine the pharmacokinetics of a test compound in rabbit ocular tissues.
1-(2-(6-(2-ethyl-5-fluoro-4-hydroxyphenyl)-4-fluoro-1H-indazol-3-yl)-1,4,6,7-tetrahydro-5H-imidazo[4,5-c]pyridin-5-yl)-2-morpholinoethan-1-one (1), prepared in Example 2, was dissolved in 2% 2-hydroxypropyl-β-cyclodextrin to attain a target concentration of 1 mg/mL. Bilateral intravitreal injection (50 μL/eye) of the solution of test compound was administered to New Zealand white rabbits (50 μg/eye). The test compound concentration was measured in ocular tissues: vitreous, aqueous, retina/choroid and iris-ciliary body at pre-determined time points post injection (30 min, 4 h, 1 d, 3 d, 7 d, 14 d). Two rabbits (four eyes) were dosed for each time point.
A suspension formulation was prepared by combining compound 1 of Example 2 (Form 1), with 0.5% hydroxypropyl methylcellulose (HPMC E5)+0.02% Tween 80 in normal saline to attain a target concentration of 5 mg/mL, 20 mg/mL and 80 mg/mL for the 0.25 mg/eye, 1 mg/eye and 4 mg/eye doses respectively. Bilateral intravitreal injection (50 μL/eye) of the suspension of test compound was administered to New Zealand white rabbits. The test compound concentration was measured in ocular tissues as in the solution formulation assay at 30 min, 4 h, 24 h, 72 h, 7 d, 14 d, 28 d, 56 d and 84 d post injection. For the 4 mg/eye dose group, an additional time point at 168 d post injection was also collected. […] The clearance rate is consistent with the solubility of compound 1 in the vehicle and the ocular pharmacokinetic behavior in the solution formulation. […] Therefore, it is plausible that drug exposure is longer than that observed in this study. The drug concentration in plasma was measured and found to be at least 3 orders of magnitude lower than the concentration in vitreous tissue at all three concentrations.
A suspension formulation was prepared by combining compound 1 of Example 5 (Form 2), with 0.5% hydroxypropyl methylcellulose (HPMC E5)+0.02% Tween 80 in normal saline to attain a target concentration of […], 1 mg/mL, 2 mg/mL and 20 mg/mL for the 0.02 mg/eye, 0.05 mg/eye, 0.1 mg/eye and 1 mg/eye doses respectively. Bilateral intravitreal injection (50 μL/eye) of the suspension of test compound was administered to Dutch Belted rabbits. The test compound concentration was measured in vitreous humor, aqueous humor, iris-ciliary body, retina, retinal pigment epithelial/choroidal cells and plasma at 30 min, 7 d, 14 d, 28 d, 42 d and 56 d post injection. […] Therefore, it is plausible that drug exposure is longer than that observed in this study. The drug concentration in plasma was measured and found to be at least 3 orders of magnitude lower than the concentration in vitreous tissue at all three concentrations. The 3 orders of magnitude correspond to a logarithmic scale (ie 1000 on a non-logarithmic scale).

[2] = Dermal pharmacokinetics in mouse skin; format: in vivo; settings: mice, model cream and ointment formulations, without detectable plasma exposure
Description: The objective of this assay was to determine the epidermal, dermal and plasma pharmacokinetics of a test compound following a 24 hr exposure to intact mouse or mini-pig skin.
Twenty-four hours prior to dosing the hair was shaved from the back of 25 g male Balb/c mice exposing an area at of least 6 cm^2 (about 10% of body surface) and, in a separate experiment, of 10 kg Gottingen mini-pigs exposing an area of at least 450 cm^2 (about 10% of body surface). At time zero, following isoflurane anesthesia, the test compound was applied to the back of mice or mini-pigs at a dose of 25 μL/cm^2. The skin was covered with an adhesive cover to prevent loss of compound to the cage or bedding.
Following 24 h exposure, the backs were gently washed with soap and water to remove non-absorbed drug and patted dry. Immediately following this washing, blood was drawn by cardiac puncture from the mice and via venipuncture from the mini-pigs. The outer skin (stratum corneum) was then removed by adhesive tape stripping. Upon exposure of the epidermis a 0.5 cm punch biopsy was taken. The epidermis and dermis were quickly separated, weighed and snap frozen. […]
Epidermis and dermis samples were homogenized in 1:10 (w/v) water using a Covaris ultrasonic homogenizer. Samples were extracted in 3 volumes of acetonitrile and quantified against a standard curve via LC-MS analysis.

PKAC-ALPHA = target: T1, PKAC-ALPHA (Homo sapiens, UniProt P17612); experiment: Kinome screen, PKAC-ALPHA; format: binding; settings: screened at 1 μM
T1 construct: made in house; host or cells: T7 phage in E. coli (BL21-derived) or HEK-293
Experimental: Kinase-tagged T7 phage strains were grown in parallel in 24-well blocks in an E. coli host derived from the BL21 strain. E. coli were grown to log-phase and infected with T7 phage from a frozen stock (multiplicity of infection=0.4) and incubated with shaking at 32° C. until lysis (90-150 minutes). The lysates were centrifuged (6,000×g) and filtered (0.2 μm) to remove cell debris. The remaining kinases were produced in HEK-293 cells and subsequently tagged with DNA for qPCR detection.
Streptavidin-coated magnetic beads were treated with biotinylated small molecule ligands for 30 minutes at room temperature to generate affinity resins for kinase assays. The liganded beads were blocked with excess biotin and washed with blocking buffer (SeaBlock (Pierce), 1% BSA, 0.05% Tween 20, 1 mM DTT) to remove unbound ligand and to reduce non-specific phage binding. […] Test compounds were prepared as 40× stocks in 100% DMSO and directly diluted into the assay. All reactions were performed in polypropylene 384-well plates in a final volume of 0.04 ml. […] The beads were then re-suspended in elution buffer (1×PBS, 0.05% Tween 20, 0.5 μM non-biotinylated affinity ligand) and incubated at room temperature with shaking for 30 minutes. The kinase concentration in the eluates was measured by qPCR.

Compound: CCc1cc(O)c(F)cc1-c1cc(F)c2c(-c3nc4c([nH]3)CCN(C(=O)CN3CCOCC3)C4)n[nH]c2c1 [Compound 1, 1-(2-(6-(2-ethyl-5-fluoro-4-hydroxyphenyl)-4-fluoro-1H-indazol-3-yl)-1,4,6,7-tetrahydro-5H-imidazo[4,5-c]pyridin-5-yl)-2-morpholinoethan-1-one]
- ocular exposure at 24 weeks ([1]; Form 1 suspension, intravitreal 4 mg/eye, New Zealand white rabbits): Sustained exposure
- drug concentration in plasma lower than concentration in vitreous tissue ([1]; Form 1 suspension, intravitreal 0.25, 1 and 4 mg/eye, New Zealand white rabbits): at least 3 orders of magnitude
- ocular exposure at 12 weeks (84 d) ([1]; Form 1 suspension, intravitreal, all doses (0.25, 1, 4 mg/eye), New Zealand white rabbits): Robust sustained exposure
- drug concentration in plasma lower than concentration in vitreous tissue ([1]; Form 2 suspension, intravitreal 0.02, 0.05, 0.1 and 1 mg/eye, Dutch Belted rabbits): at least 3 orders of magnitude
- change of drug concentration in vitreous tissue from 30 min to last time point tested ([1]; Form 2 suspension, intravitreal 0.02-1 mg/eye, Dutch Belted rabbits, last time point 28-56 d): very gradual decrease
- half-life ([1]; New Zealand white, 50 μg/eye, New Zealand white rabbits, read-out: terminal half-life, vitreous tissue (converted)): ~48 h
- concentration in plasma versus vitreous tissue ([1]; rabbit eyes, single intravitreal injection (summary of Assay 7)): at least three orders of magnitude lower
- half-life ([1]; New Zealand white rabbits, read-out: half-life of initial decrease in concentration, vitreous tissue (converted)): ~9 h
- duration of sustained dermal levels [2]: at least 2 days
- inhibition at 1 µM (PKAC-ALPHA): 20%
